According to US20030229132A1, “Small molecule modulators of apoptosis” (priority 2002, published 2003):

Molecular target: T1, Apaf-1 (Homo sapiens, UniProt O14727)
T1 construct: resulting in full-length Apaf-XL with a C-terminal six histidine tag; six histidine tag (His6) (C); made in house; host or cells: insect cells (Hi-5), baculovirus vector pFastbacHT / pFastbacH
T1 sequence (O14727 1-1248): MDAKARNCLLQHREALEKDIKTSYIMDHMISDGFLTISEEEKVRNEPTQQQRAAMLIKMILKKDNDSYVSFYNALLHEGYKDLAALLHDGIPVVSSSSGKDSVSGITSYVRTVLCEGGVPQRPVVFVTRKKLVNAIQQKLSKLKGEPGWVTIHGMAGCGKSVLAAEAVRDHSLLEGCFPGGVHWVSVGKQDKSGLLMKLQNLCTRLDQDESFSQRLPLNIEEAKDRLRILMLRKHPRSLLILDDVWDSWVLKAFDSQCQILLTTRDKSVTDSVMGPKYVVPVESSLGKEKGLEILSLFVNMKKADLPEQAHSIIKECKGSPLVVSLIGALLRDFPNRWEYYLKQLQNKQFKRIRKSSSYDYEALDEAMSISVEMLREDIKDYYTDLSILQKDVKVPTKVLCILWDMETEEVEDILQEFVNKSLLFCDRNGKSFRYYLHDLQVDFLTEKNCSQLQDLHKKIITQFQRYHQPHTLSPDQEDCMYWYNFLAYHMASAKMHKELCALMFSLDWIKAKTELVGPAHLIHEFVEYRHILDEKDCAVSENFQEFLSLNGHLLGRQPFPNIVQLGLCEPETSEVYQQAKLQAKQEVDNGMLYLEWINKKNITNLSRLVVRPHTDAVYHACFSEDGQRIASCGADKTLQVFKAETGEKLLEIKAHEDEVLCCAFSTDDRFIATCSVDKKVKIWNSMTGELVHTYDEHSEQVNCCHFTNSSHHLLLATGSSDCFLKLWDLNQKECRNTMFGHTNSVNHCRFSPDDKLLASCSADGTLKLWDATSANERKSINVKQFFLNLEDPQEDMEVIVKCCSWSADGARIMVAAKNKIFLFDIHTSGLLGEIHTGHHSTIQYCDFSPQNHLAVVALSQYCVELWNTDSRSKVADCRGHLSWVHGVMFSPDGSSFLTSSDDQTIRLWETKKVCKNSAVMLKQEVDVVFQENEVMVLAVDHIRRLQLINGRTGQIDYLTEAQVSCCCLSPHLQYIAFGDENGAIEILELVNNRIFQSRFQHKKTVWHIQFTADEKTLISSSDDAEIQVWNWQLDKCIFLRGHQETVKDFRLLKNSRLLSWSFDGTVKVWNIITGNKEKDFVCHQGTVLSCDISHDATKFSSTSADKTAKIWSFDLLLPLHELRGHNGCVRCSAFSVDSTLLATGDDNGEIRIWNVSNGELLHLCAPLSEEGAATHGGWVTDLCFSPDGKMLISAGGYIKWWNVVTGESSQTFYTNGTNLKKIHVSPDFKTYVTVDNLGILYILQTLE
Experiment: Apaf-1 oligomerization by gel filtration
Type: biochemical
Settings: for increase of oligomerization of Apaf-1 over the vehicle alone: 20 μM compound, 0.15 μM cyto c; for Apaf-1 complex assembly in the absence of cyto c: no cyto c
Description: FIG. 7 depicts activity of compounds 1-5 at low cyto c concentrations in a purified system. Apaf-1 was incubated with vehicle, cyto c, or cyto c plus 20 μM compound as indicated, and then separated on a Superose 6 gel filtration column. Individual fractions were assayed for relative Apaf-1 concentrations by capture ELISA (bar graph), or the ability to activate procaspase-3 processing in lysates (line graph). The percent of Apaf-1 in apoptosomes was determined by dividing the amount of Apaf-1 in fractions 8-11 by the total amount of Apaf-1. The extent of caspase-3 activation (given in arbitrary units) corresponds to the area under the curve for fractions 8-11 in each panel. Black bars represent fractions used for calculations.
As the compounds appeared to be acting prior to caspase activation, their effect on the oligomerization of Apaf-1 was assessed (K. Cain, D. G. Brown, C. Langlais, G. M. Cohen, J Biol Chem 274, 22686-92 (1999); K. Cain et al., J Biol Chem 275, 6067-70 (2000)). By gel filtration, Apaf-1 normally runs as a monomer of ˜140 kD (FIG. 7) (see, A. Saleh, S. M. Srinivasula, S. Acharya, R. Fishel, E. S. Alnemri, J Biol Chem 274, 17941-5 (1999)). Incubation of Apaf-1 with 5 μM cyto c induces over 90% of the Apaf-1 to form large complexes of ˜700 kD, whereas incubation with 0.15 μM cyto c concentration allowed only 22% of the Apaf-1 to assemble into complexes. However, the addition of 20 μM compound 2 or 5 at the lower cyto c concentration caused the formation of two higher molecular weight complexes: a major peak that runs at the same retention time as the complex seen at 5 μM cyto c (˜700 kD), and a minor peak that elutes in the void volume. […] To determine if the Apaf-1 complexes induced by the compounds at the lower cyto c concentration are competent for caspase activation, procaspase-9, procaspase-3, and dATP were added to fractions from the gel filtration column and assayed for caspase-3 activation. Fractions from samples that had been incubated with 5 μM cyto c strongly activated caspase-3 processing (FIG. 7, panel ii, line graph), with the maximal caspase activation corresponding to the fractions that contained the apoptosome complex. On the other hand, no fractions form the sample without cyto c activated capsase-3 processing (panel i). There was a small but measurable amount of capsase-3 activation when the cyto c concentration was reduced to 0.15 μM (panel iii). However, the extent of caspase-3 activation at the reduced level of cyto c increased approximately 4-fold when either compound 2 or 5 was added to the reaction (from 0.36 arbitrary units for the vehicle alone to 1.57 and 1.4 for compounds 2 and 5, respectively, panels iv and vi). […] Again, there was no increase in capsapse-3 activation when compounds were incubated with Apaf-1 in the absence of cyto c.
Bovine heart cyto c is purchased from Sigma and used without further purification. The XL form of Apaf-1 is cloned into pFastbacH and expressed in insect cells, resulting in full-length Apaf-XL with a C-terminal six histidine tag. Purification of Apaf-1 is according to A. Saleh, et al., J Biol Chem 274, 17941-45 (1999). 100 μL of 2 μM Apaf-1 is combined with 300 μM dATP in a mixture, with or without the further addition of 0.15 μM cyto c or compounds and heated for 30 min at 37° C.
The mixtures are next injected into a Superose 6 gel filtration column and separated at 0.4 mL/min in PBS; 0.8 mL fractions are collected 10 min after injection. […]

O=C(NCc1ccc(Cl)c(Cl)c1)OC1CCc2ccccc21 (centres unmarked) [Compound 5]
increase of oligomerization of Apaf-1 over the vehicle alone: about 1.5 fold
Apaf-1 complex assembly in the absence of cyto c: no complex assembly

O=C1C(=O)N(Cc2ccc(Cl)c(Cl)c2)c2ccccc21 [Compound 2]
increase of oligomerization of Apaf-1 over the vehicle alone: about 1.5 fold
Apaf-1 complex assembly in the absence of cyto c: no complex assembly

O=C(NCc1ccc(Cl)c(Cl)c1)OC1CCc2ccccc21 (centres unmarked) [Compound 4]
increase of oligomerization of Apaf-1 over the vehicle alone: no effect
